Source: US10745755B2, “Sestrin activators for preventing and/or attenuating skin ageing and/or hydrating the skin and/or for regulating skin pigmentation” (CHANEL PARFUMS BEAUTE, priority 2014, dated 2020)

Experiments:
Format in all cases: cell-based
Loricrin = Loricrin immunostaining in human skin equivalents; settings: versus untreated control, extract last 7 days, retinol last 4 days
Description: (§1) Keratinocytes and fibroblasts from juvenile donors were purchased from Promocell. The dermal equivalent consists of a collagen solution containing rat tail collagen type I (BD Biosciences), 10× DMEM medium (Gibco/Invitrogen), sodium bicarbonate (Gibco/Invitrogen) and fibroblasts added into 6 well-culture inserts (BD) and placed in deep 6-well culture plates (BD). After 2 hours, of polymerisation at 37° C., dermal equivalents were equilibrated in supplemented Keratinocyte Growth Medium (KGM2 basal medium+SupplementMix, Promocell) and placed at 37° C., 5% CO2. After 24 hours, suspension of keratinocytes was added over the gel and submerged for 3 days in supplemented Keratinocyte Growth Medium. The inserts were placed at the air liquid interface in Serum-free Keratinocyte Defined Medium (SKDM: SKDM is a high Ca^2+ medium consisting of KGM2 basal medium, transferrin (Sigma), BSA (Sigma) and L-ascorbic acid (Sigma)) for 10 days. 24 hours before culture arrest, skin equivalents were irradiated, in duplicates, with 100 mJ/cm^2 UVB.
(§2) Human skin equivalents were fixed in 10% formalin before embedding in paraffin and cutting into 5 μm-thick sections. Sections were deparaffinized in xylene, rehydrated in ethanol baths, rinsed in deionised water. Antigen retrieval in 10 mM citrate buffer pH6 at 90° C. for 20 minutes was performed before blocking reaction in goat serum 3% for 1 hour. […]

Cytokeratin 10 = Cytokeratin 10 immunostaining in human skin equivalents; settings: versus untreated control, retinol last 4 days
Description: as §1, §2

SESN3 = SESN3 immunofluorescence in human skin equivalents; settings: versus untreated control, extract last 7 days, retinol last 4 days
Description: as §1, §2

CC1=C(/C=C/C(C)=C/C=C/C(C)=C/CO)C(C)(C)CCC1 [retinol]
decreased: Loricrin immunostaining (Loricrin) | Cytokeratin 10 immunostaining (Cytokeratin 10) | SESN3 staining intensity (SESN3)
